Data taken from patent publication US20220227815A1, “COMPOSITIONS AND METHODS USEFUL IN TREATING BRAIN DISEASES” (University of Kansas, priority 2019, published 2022).
Values joined by “and” are separate entries in the source; they are usually repeats but may differ in a detail not shown here. Equal values may be shown once. “Also recorded” adds a separate entry of the source. Non-standard residues stand in square brackets, D forms with d. Residues, ends and D or L forms follow the SMILES beside them. ξ: configuration not given here. Thr(3ξ) = CC(O)[C@H](N)C(=O)O

Assays:
[1] = Peripheral organ deposition of IRdye800CW-labeled proteins by NIRF imaging; assay type: in vivo, C57BL/6 mice; conditions: for IgG mAb deposition in other organs (liver, kidney, heart, spleen, lungs) compared to control: IgG mAb 21.6 nmol/kg + 13 μmol/kg peptide i.v., NIRF signal intensity, n=3
Procedure: (§1) The activity of each peptide in enhancing blood-brain barrier (BBB) penetration was evaluated by delivering IRdye800CW donkey anti-goat IgG mAb in C57BL/6 mice; the amounts of mAb in the brain were determined using NIRF imaging. Each group contained 3 mice per group (n=3) with a mixture of male and female mice, selected randomly for each arm of the study. The injection solution was prepared by adding 600 μL PBS into 0.5 mg lyophilized IgG mAb; then, approximately 1.5 mg lyophilized peptide was added into the mixture yielding the injectable formulation. A 100 μL solution of a mixture containing IgG mAb (21.6 nmol/kg) along with 13 μmol/kg peptide of the present technology was administered via tail vein. As a control, 100 μL of IgG mAb alone was administered via i.v. route. After the delivered molecules had been circulating for 15 min, the mice were sacrificed; then, a mixture of PBS with 0.5% Tween20 was administered for cardiac perfusion to remove the blood and […] molecules into the brain microvessels. The brain and other organs such as lung, heart, spleen, liver, and kidney were harvested and rinsed with PBS. The isolated organs were scanned with Odyssey® CLx for mAb quantification.
(§2) The BBB modulatory activities of ADTC5 and HAV6 to enhance brain delivery of IRdyeR800CW-labeled lysozyme, albumin, IgG mAb, and fibronectin were compared in C57BL/6 mice. The proteins with or without 13 μmol/kg HAV6 or ADTC5 were administered via tail vein injection. For lysozyme, the delivered doses were 21.6 and 54 nmol/kg. For albumin, IgG mAb, and fibronectin, the dose used was 21.6 nmol/kg. Fifteen minutes after IgG mAb administration with or without a peptide of the present technology, the animals were sacrificed and PBS with 0.5% Tween-20 was administered for cardiac perfusion to remove the remaining protein in the BBB microvessels. The brain and other organs such as lung, heart, spleen, liver and kidney were harvested and rinsed with PBS. Protein depositions in the brain and other organs were quantified by NIRF imaging using an Odyssey CLx NIRF scanner.

[2] = system: blood-brain barrier (BBB); test: In vivo brain delivery of IRdye800CW-IgG mAb, NIRF quantification in brain homogenates; conditions: C57BL/6 mice; for average amount of IgG mAb in the brain: IRdye800CW-IgG mAb 21.6 nmol/kg i.v. alone or with 13 μmol/kg peptide, 15 min circulation, n=3; for brain delivery of IgG mAb compared to control (IgG mAb alone): IgG mAb 21.6 nmol/kg + 13 μmol/kg peptide i.v.
Procedure: as §1
The brain deposition of IgG mAb was also quantified by NIRF imaging in brain homogenates. The isolated brains were mechanically homogenized in 2.0 mL of PBS. To make the standard solutions, IRDye800CW IgG mAb stock solution (70 μg/mL) was prepared; it was then diluted with various amounts of PBS to make six different mAb concentrations. To generate a calibration curve, the brain homogenate (200 μL) was aliquoted out to a 96-well plate. 10 μL of each concentration of IgG mAb was added to three different wells of blank brain homogenates. The standard spiked homogenates were at a range of 10-200 ng/mL IgG mAb in brain homogenate. The wells were scanned using the Odyssey® CLx scanner, and the signal intensities vs. concentrations of mAb per gram of brain were used to generate a calibration curve.
as §2
(§3) A second quantification method was done using brain homogenates. In this case, the brains were homogenized in 2.0 mL PBS by mechanical disruption and 200 μL of homogenized brain (n=8) was aliquoted to a 96-well plate followed by quantification using the Odyssey CLx scanner. The signal intensity was compared to calibration curve and normalized to brain weight and homogenate volume.

[3] = system: blood-brain barrier (BBB); test: In vivo brain delivery of IRdye800CW-lysozyme (15 kDa); parameters: species or system C57BL/6 mice; conditions: for amount of lysozyme in the brain: IRdye800CW-lysozyme 54 nmol/kg i.v. alone or with 13 μmol/kg peptide, C57BL/6 mice
Procedure: Preparation of Stock and Standard Curves. The stock solution for IRDye800CW protein (i.e., lysozyme, 70 μg/mL) was prepared and stored at −80° C. The stock solution was later diluted with PBS to make the required standard solutions. To produce a standard calibration curve, 200 μL of blank brain homogenates was spiked with 10 μL standard solutions of various concentrations to yield a linear range from 0.5 to 50 ng/mL. The same method was employed for the sample's quality control (QC).
as §2, §3
(§4) Brain Perfusion. After euthanasia using CO2 chamber, mice were immediately subjected to cervical dislocation followed by removal of IRdye800CW-labeled protein from the brain capillaries using perfusion solution. In this case, a solution containing PBS with 0.2% Tween-20 was transcardially perfused to remove the remaining protein molecules in the brain endothelial microvessels. After perfusion, the brain was removed from the skull and subjected to capillary depletion.

[4] = system: blood-brain barrier (BBB); test: In vivo brain delivery of IRdye800CW-albumin (65 kDa); conditions: IRdye800CW-albumin 21.6 nmol/kg i.v. alone or with 13 μmol/kg peptide, C57BL/6 mice
Procedure: as §2, §3, §4

[5] = system: blood-brain barrier (BBB); test: In vivo brain delivery of IRdye800CW-fibronectin (220 kDa); parameters: species or system C57BL/6 mice; conditions: IRdye800CW-fibronectin 21.6 nmol/kg i.v. alone or with ADTC5 13 μmol/kg
Procedure: as §2, §3, §4

[6] = albumin 21.6 nmol/kg with 13 μmol/kg peptide, NIRF

Row | Compound | IgG mAb deposition in other organs (liver, kidney, heart, spleen, lungs) compared to control [1] | average amount of IgG mAb in the brain [2] | brain delivery of IgG mAb compared to control (IgG mAb alone) [2] | further results
1 | CC(C)[C@@H]1NC(=O)[C@H](C)NC(=O)[C@H](Cc2c[nH]cn2)NC(=O)[C@H](CO)NC(=O)[C@H](C(C)C)NC(=O)[C@@H]2CCCN2C(=O)[C@@H]2CCCN2C(=O)[C@H](C(C)O)NC1=O (stereo partly drawn) (cyclo(AV[Thr(3ξ)]PPVSH)) | significant increases in deposition of IgG mAb in liver, kidney, spleen, and lungs; also recorded: significant differences in the IgG mAb signal in lung, kidney, spleen, and liver | 15.7±0.8 pmol/g brain | significantly better than in the PBS control; also recorded: significant difference | 
2 | CC(=O)N[C@@H](CO)C(=O)N[C@@H](Cc1c[nH]cn1)C(=O)N[C@@H](C)C(=O)N[C@H](C(=O)N[C@@H](CO)C(=O)N[C@@H](CO)C(N)=O)C(C)C [HAV6, acetyl-SHAVSS-NH2] (Ac-SHAVSS-NH2) | no significant difference | 3.4±0.4 pmol/g brain and 3.42±0.5 pmol/g brain and 3.4 ± 0.5 pmol/g brain | did not enhance; also recorded: not able to deliver mAb | distribution of mAb into liver ([1]; IgG mAb 21.6 nmol/kg with 13 μmol/kg peptide, compared to control): about the same; deposition of albumin in the spleen compared to control [1, 6]: enhanced; distribution of albumin into the liver compared to control [1, 6]: significantly enhanced; lysozyme deposition in the kidney ([1]; lysozyme 54 nmol/kg with 13 μmol/kg peptide, NIRF): followed by the HAV6-treated group; amount of lysozyme in the brain [3]: 8.3±2.5 pmol/g brain; brain delivery of lysozyme compared to lysozyme alone ([3]; lysozyme 21.6 nmol/kg with 13 μmol/kg peptide): no significant improvement; amount of albumin in the brain [4]: 15.5±3.1 pmol/g brain
3 | CC(C)[C@@H]1NC(=O)[C@H](C)NC(=O)[C@H](Cc2c[nH]cn2)NC(=O)[C@H](CO)NC(=O)[C@H](CO)NC(=O)[C@H](CO)NC1=O [HAVN1, cyclo(1,6)SHAVSS] (cyclo(AVSSSH)) | no significant difference | 8.6±0.5 pmol/g brain | significantly enhanced; also recorded: significant difference | 
4 | CC(C)[C@@H]1NC(=O)[C@H](C)NC(=O)[C@H](Cc2c[nH]cn2)NC(=O)[C@H](CO)NC(=O)[C@H](CO)NC1=O [HAVN2, cyclo(1,5)SHAVS] (cyclo(AVSSH)) | no significant difference | 8.8±0.6 pmol/g brain | significantly enhanced; also recorded: significant difference | 
5 | CC(=O)N[C@H](C(=O)N1CCC[C@H]1C(=O)N1CCC[C@H]1C(=O)N[C@H](C(=O)N[C@@H](CO)C(=O)N[C@@H](Cc1c[nH]cn1)C(=O)N[C@@H](C)C(=O)N[C@H](C(N)=O)C(C)C)C(C)C)C(C)O (stereo partly drawn) [linear ADTHAV] | significant effects on the distribution of IgG mAb in the heart and kidney; also recorded: significance differences in the IgG mAb signal intensities for kidney and heart | 11.8±0.5 pmol/g brain | significantly better than in the PBS control; also recorded: significant difference | 
6 | Albumin [reference compound] |  |  |  | amount of albumin in the brain [4]: 11.8 ± 1.0 pmol/g brain; amount of albumin in the brain ([4]; listed as albumin): 11.8±1.0 pmol/g brain
7 | Lysozyme [reference compound] |  |  |  | amount of lysozyme in the brain [3]: 0 ± 0 pmol/g brain; amount of lysozyme in the brain ([3]; listed as lysozyme): below the detection limits
8 | fibronectin [reference compound] |  |  |  | NIRF signal of fibronectin in brain homogenates [5]: 33.026±2.080 ×10^3 A.U.
